Measured values: patent publication US11840686B2, “Modulation of prekallikrein (PKK) expression” (Ionis Pharmaceuticals, Inc., priority 2013, dated 2023)
Strand notation (5' to 3'): a small letter for the sugar, then the base; units joined by * are phosphorothioate-linked, units joined directly phosphodiester-linked; [ ] holds rarer units or linkages, { } end groups; capitals alone tell only the bases. e = 2'-O-(2-methoxyethyl) (MOE); [5mC] = 5-methylcytosine; d = 2'-deoxy (DNA)

Tests used:
[1] = test system: human PKK mRNA; assay: Antisense inhibition of human PKK mRNA in HepaRG cells, 5,000 nM (Example 2); assay type: cell-based; settings: approx. 24 hours
Summary of the method: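 HepaRG cells, 20,000 per well, were electroporated with 5,000 nM MOE gapmer (phosphorothioate, 5-methylcytosine) and incubated about 24 hours. PKK mRNA was quantified by qRT-PCR with primer probe set RTS3454, normalized to RIBOGREEN total RNA, and expressed as percent inhibition versus untreated controls.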

[2] = test system: human PKK mRNA; assay: Dose-dependent antisense inhibition of human PKK in HepaRG cells, 0.19-5.00 uM (Example 5); assay type: cell-based; settings: HepaRG cells; for IC50: 4 point dose response
Procedure: Cells were plated at a density of 20,000 cells per well and transfected using electroporation with 0.19 μM, 0.56 μM, 1.67 μM, and 5.00 μM concentrations of antisense oligonucleotide. After a treatment period of approximately 16 hours, RNA was isolated from the cells and PKK mRNA levels were measured by quantitative real-time PCR. Human PKK primer probe set RTS3454 was used to measure mRNA levels. PKK mRNA levels were adjusted according to total RNA content, as measured by RIBOGREEN®. The antisense oligonucleotides were tested in a series of experiments that had similar culture conditions.
The half maximal inhibitory concentration (IC50) of each oligonucleotide is also presented.

[3] = Table 8, HepaRG cells, electroporation with 5,000 nM antisense oligonucleotide, PKK mRNA by RT-PCR (RTS3454), relative to untreated control cells
[4] = electroporation, approximately 16 hours, Table 35
[5] = electroporation, approximately 16 hours, Table 38
[6] = electroporation, approximately 16 hours, Table 40
[7] = Table 9 experiment, HepaRG cells, 20,000 cells per well, electroporation with 5,000 nM antisense oligonucleotide, PKK mRNA by RT-PCR (RTS3454), relative to untreated control cells
[8] = Table 10 experiment, HepaRG cells, 20,000 cells per well, electroporation with 5,000 nM antisense oligonucleotide, PKK mRNA by RT-PCR (RTS3454), relative to untreated control cells
[9] = electroporation, approximately 16 hours, Table 37

546268 (e[5mC]*eT*eT*e[5mC]*e[5mC]*dT*dT*dA*d[5mC]*dA*dG*dT*d[5mC]*dT*dT*e[5mC]*eT*eG*eG*eG; antisense) [compound 546268]
% inhibition [1, 3]: 93%
percent inhibition of PKK at 0.19 μM [2, 4]: 56%
percent inhibition of PKK at 0.56 μM [2, 4]: 50%
percent inhibition of PKK at 1.67 μM [2, 4]: 82%
percent inhibition of PKK at 5.00 μM [2, 4]: 93%
percent inhibition of PKK at 5.00 μM ([2]; electroporation, approximately 16 hours, Table 41): 92%
percent inhibition of PKK at 0.19 0μM ([2]; 0.19 0μM, electroporation, approximately 16 hours, Table 41): 0%
percent inhibition of PKK at 0.56 0μM ([2]; 0.56 0μM, electroporation, approximately 16 hours, Table 41): 71%
percent inhibition of PKK at 1.67 1μM ([2]; 1.67 1μM, electroporation, approximately 16 hours, Table 41): 92%
IC50 ([2]; Table 41): 0.5 µM

546287 (antisense eG*eT*eT*eG*eT*d[5mC]*d[5mC]*d[5mC]*d[5mC]*dA*dG*dT*dG*dT*dT*eA*e[5mC]*eA*e[5mC]*eA) [compound 546287]
% inhibition [1, 3]: 82%
percent inhibition of PKK at 0.19 μM [2, 5]: 0%
percent inhibition of PKK at 0.56 μM [2, 5]: 15%
percent inhibition of PKK at 1.67 μM [2, 5]: 39%
percent inhibition of PKK at 5.00 μM [2, 5]: 89%
IC50 ([2]; Table 38): 1.7 µM

546291 (antisense e[5mC]*eA*eG*eG*eG*d[5mC]*d[5mC]*dA*d[5mC]*dT*d[5mC]*dT*d[5mC]*d[5mC]*d[5mC]*e[5mC]*eA*eA*eG*eA) [compound 546291]
% inhibition [1, 3]: 81%
percent inhibition of PKK at 0.19 μM [2, 6]: 22%
percent inhibition of PKK at 0.56 μM [2, 6]: 32%
percent inhibition of PKK at 1.67 μM [2, 6]: 34%
percent inhibition of PKK at 5.00 μM [2, 6]: 72%
IC50 ([2]; Table 40): 2 µM

546301 (antisense eT*eT*eG*eT*eA*dA*dT*dG*dT*d[5mC]*dT*dG*dA*d[5mC]*dA*eG*eA*eT*eT*eT) [compound 546301]
% inhibition [1, 3]: 93%
percent inhibition of PKK at 0.19 μM [2, 4]: 25%
percent inhibition of PKK at 0.56 μM [2, 4]: 50%
percent inhibition of PKK at 1.67 μM [2, 4]: 53%
percent inhibition of PKK at 5.00 μM [2, 4]: 87%
IC50 ([2]; Table 35): 0.8 µM

546304 (antisense e[5mC]*eT*eT*eT*eT*dA*dT*dT*dT*dG*dT*dG*dA*dG*dA*eA*eA*eG*eG*eT) [compound 546304]
% inhibition [1, 7]: 94%
% inhibition [1, 8]: 86%
percent inhibition of PKK at 0.19 μM [2, 9]: 0%
percent inhibition of PKK at 0.56 μM [2, 9]: 6%
percent inhibition of PKK at 1.67 μM [2, 9]: 51%
percent inhibition of PKK at 5.00 μM [2, 9]: 71%
IC50 ([2]; Table 37): 2.1 µM

546310 (antisense eG*eA*eT*eT*e[5mC]*d[5mC]*d[5mC]*dT*dT*d[5mC]*dT*dG*dA*dG*dA*e[5mC]*eT*eT*eT*eA) [compound 546310]
% inhibition [1, 7]: 78%
% inhibition [1, 8]: 67%
percent inhibition of PKK at 0.19 μM [2, 6]: 0%
percent inhibition of PKK at 0.56 μM [2, 6]: 36%
percent inhibition of PKK at 1.67 μM [2, 6]: 56%
percent inhibition of PKK at 5.00 μM [2, 6]: 80%
IC50 ([2]; Table 40): 1.3 µM

546358 (antisense e[5mC]*eT*eG*eA*eG*d[5mC]*dT*dT*dT*dT*d[5mC]*d[5mC]*dA*dT*d[5mC]*eA*e[5mC]*eT*eG*e[5mC]) [compound 546358]
% inhibition ([1]; HepaRG cells, electroporation, 5,000 nM antisense oligonucleotide, primer probe set RTS3454, relative to untreated control cells, Table 11): 83%
percent inhibition of PKK at 0.19 μM [2, 5]: 0%
percent inhibition of PKK at 0.56 μM [2, 5]: 19%
percent inhibition of PKK at 1.67 μM [2, 5]: 71%
percent inhibition of PKK at 5.00 μM [2, 5]: 80%
IC50 ([2]; Table 38): 1.3 µM
